{
  "source": "paper PMC12376458",
  "about": "“Multi-omics analysis reveals ACOT1 as the key target of piperine in Piper Longum-mediated gastric cancer treatment” (Chinese Medicine, 2025)",
  "molecular_target": "T1, ACOT1 (Acyl-CoA Thioesterase 1) (Homo sapiens, UniProt Q86TX2)",
  "T1 construct": "endogenous protein in NP-40 cell lysate, western blot read-out; mouse MFC used for xenograft",
  "T1 sequence (Q86TX2 2-421)": "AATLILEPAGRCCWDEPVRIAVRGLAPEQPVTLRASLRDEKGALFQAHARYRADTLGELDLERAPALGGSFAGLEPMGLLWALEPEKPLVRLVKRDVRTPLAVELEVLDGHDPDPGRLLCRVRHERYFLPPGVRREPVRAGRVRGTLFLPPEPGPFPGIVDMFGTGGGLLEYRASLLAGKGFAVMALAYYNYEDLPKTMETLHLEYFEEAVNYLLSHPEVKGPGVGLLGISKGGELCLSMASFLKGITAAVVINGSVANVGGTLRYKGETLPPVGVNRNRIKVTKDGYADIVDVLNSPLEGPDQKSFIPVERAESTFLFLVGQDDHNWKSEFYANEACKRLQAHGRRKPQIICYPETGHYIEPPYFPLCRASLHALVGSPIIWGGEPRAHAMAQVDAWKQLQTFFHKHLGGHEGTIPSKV",
  "assay": "cellular thermal shift assay (CETSA) in cell lysate, western blot",
  "format": "biochemical",
  "details": "60 μM piperine vs DMSO, 4 °C 5 h, then 35–60 °C for 3 min",
  "data": [
    {"smiles": "O=C(/C=C/C=C/c1ccc2c(c1)OCO2)N1CCCCC1", "note": "[piperine]", "values": [
      {"measurement": "cellular thermal shift assay (CETSA) in cell lysate, western blot", "result": "CETSA experimental results showed that piperine treatment enhanced the thermal stability of ACOT1"}
    ]}
  ]
}
